From US20240092739A1, “COMPOUNDS AND METHODS OF USE” (Ferro Therapeutics, Inc, priority 2020, published 2024)
Where two headings read alike, the source gives them in different places.

Tests used:
[1] = system: 786-O (renal cell carcinoma) cells; experiment: Cell proliferation (Alamar Blue) assay, 786-O cells; format: cell-based; details: Homo sapiens, 786-0, 786-O cells, Alamar Blue
Experimental: (§1) Cell viability assay was performed to assess the potency of the compounds in human cancer cell lines 786-0 (renal cell carcinoma) and SJSA-1 (osteosarcoma). Additional cell lines, such as pancreatic cancer cell lines (Panc 02.13, BxPC-3, Panc 12, Panc 02.03, Panc 6.03, PSN-1, HPAC, and Capan-1), prostate cancer cell lines (PC-3, DU145, […], NCI-H660, 1PH1 LNCaP, BM-1604, and MDA PCa 2b), etc., can be tested in a similar method.
(§2) Cells (SJSA-1, 786-0 and A431) were seeded (5000 cells/100 μL/well) in 96-well tissue culture plate and incubated at 37° C./500 CO2 for 16-24 hours. The cells were then treated with compounds (25 μL of 5×). The compound concentrations were 10-0.0005 μM prepared in 3-fold serial dilutions with final DMSO concentration of 1%. The plates were then incubated for 24 h at 37° C./[…] in a moist environment. Then Alamar Blue™ reagent (final concentration 1×-12.5 μL) was added to each well and incubated for 1.5 hours at 37° C./500 CO2. The plates were read on fluorescence reader at 540 nm excitation and 590 nm emission wavelengths. The IC50 values were subsequently determined using a sigmoidal dose-response curve (variable slope) in GraphPad Prism® 5 software. Tables A-3 and B-11 show cell proliferation data for exemplary compounds as described herein.

[2] = system: A431 cells; experiment: Cell proliferation (Alamar Blue) assay, A431 cells; format: cell-based; details: Homo sapiens, A-431, A431 cells, Alamar Blue
Experimental: as §1, §2

[3] = system: 786-O cells + Ferrastatin-1; experiment: GPX4 inhibition assay: cell proliferation (Alamar Blue) in 786-O cells with ferrostatin rescue; format: cell-based, human
Experimental: as §2
Studies have shown that lipophilic antioxidants, such as ferrostatin, can rescue cells from GPX4 inhibition-induced ferroptosis. For instance, mesenchymal state GPX4-knockout cells can survive in the presence of ferrostatin, however, when the supply of ferrostatin is terminated, these cells undergo ferroptosis (see, e.g., Viswanathan et al., Nature 547:453-7, 2017). […] Accordingly, the ability of a molecule to induce ferroptotic cancer cell death, and that such ability is admonished by the addition of ferrostatin, is clear indication that the molecule is an GPX4 inhibitor. Cell proliferation data for exemplary compounds with and without ferrostatin can be seen in Table A-3.

[4] = 24 h compound incubation, read-out: Cell proliferation IC50 (μM) 786-O
[5] = 24 h compound incubation, read-out: Cell proliferation IC50 (μM) A431
[6] = 786-O cells with Ferrastatin-1 (rescue), read-out: Cell proliferation IC50 (μM) 786-O + Ferrastatin-1
[7] = 24 h compound treatment, read-out: IC50 (μM) 786-O
[8] = 24 h compound treatment, read-out: IC50 (μM) A431
[9] = 786-O cells in presence of Ferrastatin-1 (rescue), read-out: IC50 (μM) 786-O + Ferrastatin-1

CCCC[C@H]1Cc2cc(OC)ccc2[C@H](C23CC(F)(C2)C3)N1C(=O)C#C[Si](C)(C)C [Compound A-9, 1-((1S,3S)-3-butyl-1-(3-fluorobicyclo[1.1.1]pentan-1-yl)-6-methoxy-3,4-dihydroisoquinolin-2(1H)-yl)-3-(trimethylsilyl)prop-2-yn-1-one]
IC50 [1, 4]: 0.18 µM | IC50 [2, 5]: > 1 µM | IC50 [3, 6]: > 1 µM

CCCC[C@H]1Cc2cc(OC)ccc2[C@@H](C23CC(F)(C2)C3)N1C(=O)C#C[Si](C)(C)C [Compound A-10, 1-((1R,3S)-3-butyl-1-(3-fluorobicyclo[1.1.1]pentan-1-yl)-6-methoxy-3,4-dihydroisoquinolin-2(1H)-yl)-3-(trimethylsilyl)prop-2-yn-1-one]
IC50 [1, 4]: 0.075 µM | IC50 [2, 5]: > 1 µM | IC50 [3, 6]: > 1 µM

CCCC[C@H]1Cc2cc(OC)ccc2[C@H](c2ccc(NC3CC(F)(F)C3)cc2)N1C(=O)C#C[Si](C)(C)C [Compound A-11, 1-((1S,3S)-3-butyl-1-(4-((3,3-difluorocyclobutyl)amino)phenyl)-6-methoxy-3,4-dihydroisoquinolin-2(1H)-yl)-3-(trimethylsilyl)prop-2-yn-1-one]
IC50 [1, 4]: 0.109 µM | IC50 [2, 5]: > 1 µM | IC50 [3, 6]: > 1 µM

CCCC[C@H]1Cc2cc(OC)ccc2[C@H](c2ccc(N3CCC(F)(F)C3)cc2)N1C(=O)C#C[Si](C)(C)C [Compound A-12, 1-((1S,3S)-3-butyl-1-(4-(3,3-difluoropyrrolidin-1-yl)phenyl)-6-methoxy-3,4-dihydroisoquinolin-2(1H)-yl)-3-(trimethylsilyl)prop-2-yn-1-one]
IC50 [1, 4]: 0.051 µM | IC50 [2, 5]: > 1 µM | IC50 [3, 6]: > 1 µM

CCCC[C@H]1Cc2cc(OC(F)(F)F)ccc2[C@H](c2ccc(NC34CC5CC(CC(C5)C3)C4)cc2)N1C(=O)C#C[Si](C)(C)C [Compound A-26, 1-((1S,3S)-1-(4-(((3R,5R,7R)-adamantan-1-yl)amino)phenyl)-3-butyl-6-(trifluoromethoxy)-3,4-dihydroisoquinolin-2(1H)-yl)-3-(trimethylsilyl)prop-2-yn-1-one]
IC50 [1, 4]: 0.043 µM | IC50 [2, 5]: 3.05 µM | IC50 [3, 6]: 4.19 µM

CCCC[C@H]1Cc2cc(C(F)(F)F)ccc2[C@H](c2ccc(NC34CC5CC(CC(C5)C3)C4)cc2)N1C(=O)C#C[Si](C)(C)C [Compound A-28]
IC50 [1, 4]: 0.015 µM | IC50 [2, 5]: 2.94 µM | IC50 [3, 6]: 3.58 µM

CCCC[C@H]1Cc2cc(OC)ccc2[C@H](c2ccc(NC34CC5CC(CC(C5)C3)C4)cc2)N1C(=O)C#C[Si](C)(C)CCCOC(C)=O [Compound A-41]
IC50 [1, 4]: 0.0125 µM | IC50 [2, 5]: 0.563 µM | IC50 [3, 6]: 1.86 µM

COc1ccc2c(c1)C[C@H](CC(C)C)N(C(=O)C#C[Si](C)(C)C)[C@H]2c1ccc(NC23CC4CC(CC(C4)C2)C3)cc1 [Compound A-43]
IC50 [1, 4]: 0.0725 µM | IC50 [2, 5]: 1.83 µM | IC50 [3, 6]: 2.13 µM

CCCC[C@H]1Cc2cc(OCCO)ccc2[C@H](c2ccc(NC34CC5CC(CC(C5)C3)C4)cc2)N1C(=O)C#C[Si](C)(C)C [Compound A-44]
IC50 [1, 4]: 0.0053 µM | IC50 [2, 5]: 2.24 µM | IC50 [3, 6]: 2.82 µM

CCCC[C@H]1Cc2cc(OC)ccc2[C@H](c2ccc(NC34CC5CC(C3)CC(OC(=O)[C@@H](N)C(C)C)(C5)C4)cc2)N1C(=O)C#C[Si](C)(C)C [Compound A-45]
IC50 [1, 4]: 0.0177 µM | IC50 [2, 5]: 1.7 µM | IC50 [3, 6]: 2.04 µM

CCCC[C@H]1Cc2cc(OC)ccc2[C@H](c2ccc(NC34CC5CC(CC(O)(C5)C3)C4)cc2)N1C(=O)C#C[Si](C)(C)C [Compound A-47]
IC50 [1, 4]: 0.049 µM | IC50 [2, 5]: 1.63 µM | IC50 [3, 6]: 2.33 µM

C#CC(=O)N1[C@@H](CCCC)Cc2cc(OC)ccc2[C@@H]1c1ccc(NC23CC4CC(CC(O)(C4)C2)C3)cc1 [Compound B-13]
IC50 [1, 7]: 0.055 µM | IC50 [2, 8]: 1.49 µM | IC50 [3, 9]: 2.01 µM

C#CC(=O)N1[C@@H](CCCC)Cc2cc(CCC(=O)O)ccc2[C@@H]1c1ccc(NC23CC4CC(CC(C4)C2)C3)cc1 [Compound B-55]
IC50 [1, 7]: 0.046 µM | IC50 [2, 8]: ≥ 10 µM | IC50 [3, 9]: ≥ 10 µM

C#CC(=O)N1[C@@H](CCCC)Cc2cc(CCCO)ccc2[C@@H]1c1ccc(NC23CC4CC(CC(C4)C2)C3)cc1 [Compound B-56]
IC50 [1, 7]: 0.012 µM | IC50 [2, 8]: 0.117 µM | IC50 [3, 9]: 1.27 µM

C#CC(=O)N1[C@@H](CCCC)Cc2cc(OCCOC(=O)CN)ccc2[C@@H]1c1ccc(NC23CC4CC(CC(C4)C2)C3)cc1 [Compound B-57]
IC50 [1, 7]: 0.005 µM | IC50 [2, 8]: 2.88 µM | IC50 [3, 9]: 2.81 µM

C#CC(=O)N1[C@@H](CCCC)Cc2cc(NC(=O)C3CCCN3)ccc2[C@@H]1c1ccc(NC23CC4CC(CC(C4)C2)C3)cc1 (stereo partly drawn) [Compound B-58]
IC50 [1, 7]: 0.011 µM | IC50 [2, 8]: 0.856 µM | IC50 [3, 9]: 2.36 µM

C#CC(=O)N1[C@@H](CCCC)Cc2cc(OC)ccc2[C@@H]1c1ccc(NC2CCC2)c(Cl)c1 [Compound B-59]
IC50 [1, 7]: 0.052 µM | IC50 [2, 8]: 2.37 µM | IC50 [3, 9]: 5.84 µM

C#CC(=O)N1[C@@H](CCCC)Cc2cc(OCCO)ccc2[C@@H]1c1ccc(NC23CC4CC(CC(C4)C2)C3)cc1 [Compound B-60]
IC50 [1, 7]: 0.005 µM | IC50 [2, 8]: 2.12 µM | IC50 [3, 9]: 2.18 µM

C#CC(=O)N1[C@@H](CCCC)Cc2cc(C(N)=O)ccc2[C@@H]1c1ccc(NC23CC4CC(CC(C4)C2)C3)cc1 [Compound B-61]
IC50 [1, 7]: 0.012 µM | IC50 [2, 8]: 3.54 µM | IC50 [3, 9]: 1.28 µM

C#CC(=O)N1[C@@H](CCCC)Cc2cc(CO)ccc2[C@@H]1c1ccc(NC23CC4CC(CC(C4)C2)C3)cc1 [Compound B-62]
IC50 [1, 7]: 0.005 µM | IC50 [2, 8]: 2.43 µM | IC50 [3, 9]: 7.15 µM

C#CC(=O)N1[C@@H](CCCC)Cc2cc(C(F)F)ccc2[C@@H]1c1ccc(NC23CC4CC(CC(C4)C2)C3)cc1 [Compound B-63]
IC50 [1, 7]: 0.009 µM | IC50 [2, 8]: 0.727 µM | IC50 [3, 9]: 0.939 µM

C#CC(=O)N1[C@@H](CCCC)Cc2cc(OCc3cn(CCOCCOCCOCCNC(=O)CCCC[C@@H]4SC[C@@H]5NC(=O)N[C@@H]54)nn3)ccc2[C@@H]1c1ccc(NC23CC4CC(CC(C4)C2)C3)cc1 [Compound B-65]
IC50 [1, 7]: ≥ 10 µM | IC50 [2, 8]: ≥ 10 µM | IC50 [3, 9]: ≥ 10 µM

C#CC(=O)N1[C@@H](CCCC)Cc2cc(OC)ccc2[C@@H]1c1ccc(NC23CC4CC(CC(C4)C2)C3)c(Cl)c1 [Compound B-66]
IC50 [1, 7]: 0.055 µM | IC50 [2, 8]: 3.15 µM | IC50 [3, 9]: 2.62 µM

C#CC(=O)N1[C@@H](CCCC)Cc2cc(OC)ncc2[C@@H]1c1ccc(NC23CC4CC(CC(C4)C2)C3)cc1 [Compound B-67]
IC50 [1, 7]: 0.005 µM | IC50 [2, 8]: 1.13 µM | IC50 [3, 9]: 1.19 µM

C#CC(=O)N1[C@@H](CCCC)Cc2cc(OC)ncc2[C@H]1c1ccc(NC23CC4CC(CC(C4)C2)C3)cc1 [Compound B-68]
IC50 [1, 7]: 0.042 µM | IC50 [2, 8]: 2.35 µM | IC50 [3, 9]: 2.61 µM

C#CC(=O)N1[C@@H](CCCC)Cc2c(OC)cccc2[C@@H]1c1ccc(NC23CC4CC(CC(C4)C2)C3)cc1 [Compound B-69]
IC50 [1, 7]: 0.015 µM | IC50 [2, 8]: 1.79 µM | IC50 [3, 9]: 2.47 µM

C#CC(=O)N1[C@@H](CCCC)Cc2cc(OCCOC)ccc2[C@@H]1c1ccc(NC23CC4CC(CC(C4)C2)C3)cc1 [Compound B-70]
IC50 [1, 7]: 0.012 µM | IC50 [2, 8]: 2.08 µM | IC50 [3, 9]: 1.59 µM

C#CC(=O)N1[C@@H](CC(C)C)Cc2cc(OC)ccc2[C@@H]1c1ccc(NC23CC4CC(CC(C4)C2)C3)cc1 [Compound B-71]
IC50 [1, 7]: 0.066 µM | IC50 [2, 8]: 1.18 µM | IC50 [3, 9]: 1.71 µM

C#CC(=O)N1[C@@H](CCC(C)C)Cc2cc(OC)ccc2[C@@H]1c1ccc(NC23CC4CC(CC(C4)C2)C3)cc1 [Compound B-72]
IC50 [1, 7]: 0.036 µM | IC50 [2, 8]: 1.7 µM | IC50 [3, 9]: 1.6 µM

C#CC(=O)N1[C@@H](CCCC)Cc2cc(OC)ccc2[C@@H]1c1cccc(NC23CC4CC(CC(C4)C2)C3)c1 [Compound B-74]
IC50 [1, 7]: 0.025 µM | IC50 [2, 8]: 3.06 µM | IC50 [3, 9]: 1.91 µM

C#CC(=O)N1[C@@H](CCCC)Cc2cc(C(F)(F)F)ccc2[C@@H]1c1ccc(NC23CC4CC(CC(C4)C2)C3)cc1 [Compound B-77]
IC50 [1, 7]: 0.012 µM | IC50 [2, 8]: 0.557 µM | IC50 [3, 9]: 1.21 µM

C#CC(=O)N1[C@@H](CCCC)Cc2cc(C#N)ccc2[C@@H]1c1ccc(NC23CC4CC(CC(C4)C2)C3)cc1 [Compound B-78]
IC50 [1, 7]: 0.004 µM | IC50 [2, 8]: 0.569 µM | IC50 [3, 9]: 0.662 µM

C#CC(=O)N1[C@@H](CCCC)Cc2cc(OC(F)(F)F)ccc2[C@@H]1c1ccc(NC23CC4CC(CC(C4)C2)C3)cc1 [Compound B-79]
IC50 [1, 7]: 0.017 µM | IC50 [2, 8]: 7 µM | IC50 [3, 9]: 1 µM
